According to ChEMBL document CHEMBL2073977, “Endotoxin downregulates rat hepatic ntcp gene expression via decreased activity of critical transcription factors” (J Clin Invest, 1998):

Columns and labels:
[1] = molecular target: T1, Hepatic sodium/bile acid cotransporter (Rattus norvegicus, UniProt P26435); assay: TP_TRANSPORTER: Western in vivo, liver of SD rat; assay type: functional, organism-based, Sprague-Dawley
T1 sequence (P26435 whole entry): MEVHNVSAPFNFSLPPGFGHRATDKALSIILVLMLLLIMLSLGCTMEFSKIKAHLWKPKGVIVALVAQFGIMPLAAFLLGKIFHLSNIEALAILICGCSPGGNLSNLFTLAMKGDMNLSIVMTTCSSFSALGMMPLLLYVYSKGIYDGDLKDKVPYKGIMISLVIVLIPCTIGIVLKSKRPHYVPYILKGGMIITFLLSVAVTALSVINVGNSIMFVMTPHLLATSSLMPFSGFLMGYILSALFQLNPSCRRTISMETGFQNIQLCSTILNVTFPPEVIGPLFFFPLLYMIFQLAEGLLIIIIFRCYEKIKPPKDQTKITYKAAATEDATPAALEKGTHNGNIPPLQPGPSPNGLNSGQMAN

[2] = molecular target: T1, Hepatic sodium/bile acid cotransporter; assay: TP_TRANSPORTER: Northern blot in vivo, liver of SD rat; assay type: functional, organism-based, Sprague-Dawley

Activity [1]: inducer [Decrease]
Activity [2]: inducer [Decrease]
SMILES: CCCCCCCCCCCCCC(=O)OC(CCCCCCCCCCC)CC(=O)OC1C(NC(=O)CC(CCCCCCCCCCC)OC(=O)CCCCCCCCCCC)C(OC2CC(OC(=O)CC(O)CCCCCCCCCCC)C(NC(=O)CC(O)CCCCCCCCCCC)C(O)O2)OC(CO)C1OP(=O)(O)O (configuration not stated)
